The test system of series [1] is LDLR ligand uptake activity in HepG2 cells. Nature of the series: DiI-LDL uptake in HepG2 cells (Example 6). Note: key: +: slightly increased fluorescent intensity over control; ++: modestly increased fluorescent intensity over control; +++: strongly increased fluorescent intensity over control. It counts as cell-based, human. The settings on record: 20 hours. As for the experimental part: HepG2 cells (2×10^5 cells/well) in 24-well culture plates were treated with various compounds at indicated concentrations for 20 hours. The fluorescent 1.1′-dioctadecyl-3,3,3′,3′-tetramethylindocarbocyanin perchlorate (DiI-LDL) (Biomedical Technologies, Stoughton, Mass.) at a concentration of 2 μg/mL was added to cells at the end of treatment. After 4 hours, the medium was removed, cells were washed with cold PBS, and were examined immediately under a fluorescent microscope (Nikon) at 200× amplification. The fluorescent intensity in compound-treated cells was compared to that in untreated control cells. […] In these experiments berberine chloride was used for comparison.

Series [2] relates to LDLR mRNA expression in HepG2 cells. As to the kind of experiment: LDLR mRNA expression in HepG2 cells, quantitative real-time RT-PCR (Example 7). It counts as cell-based, human. The conditions noted are these: dose less than or equal to 10 μM, 24 hours. Summed up:
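LDLR mRNA quantified by TaqMan real-time PCR in triplicate, normalized to GAPDH and expressed relative to untreated cells set at 1 (mean±s.d.).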

The test system of series [3] is intracellular triglyceride in HepG2 cells. As to the kind of experiment: Reduction of intracellular triglyceride in HepG2 cells (Example 8). In kind it is cell-based, human. From the text:
Berberine chloride was used for comparison. The amount of TG in untreated control cells was defined as 100% and the amounts of TG in compound-treated cells were divided to that value.

Series [4] can be described thus: Stability of compound 69 under cell culture conditions, LC-MS of medium. In kind it is in vitro ADME, human. The settings on record: for Peak Area m/z 466.1: 20 μM in HepG2 culture medium. As for the experimental part: HepG2 cells were cultured in 6-well cell culture plate in EMEM containing 0.5% FBS overnight. Compound 69+ was added to the culture medium to a final concentration of 20 μM. Medium was collected at 0 (control), 4, 8, or 24 hours after the compound addition.
The collected media were analyzed by LC-MS on a Thermo Fisher Scientific Surveyor HPLC system and LCQ ion trap MS with electrospray ionization source. A 50×2. 1 mm Hypersil Gold C18 3 um column was used with a flow rate of 200 uL/min. The method conditions were 98% A (0.1% formic acid in water)/2% B (0.1% formic acid in acetonitrile) then a gradient to 95% B in 10 minutes. The injection volume was 10 uL.

In series [5] the test system is LDLR mRNA expression in HepG2 cells. As to the kind of experiment: LDLR mRNA expression in HepG2 cells, semi-quantitative RT-PCR. It counts as cell-based, human. The conditions noted are these: 8 hours, FIG. 1. As for the experimental part: HepG2 cells obtained from American Tissue Culture Collection (Manassas, Va., USA) were seeded in 6-well culture plates at a density of 0.8×10^6 cells/well cultured in EMEM containing 0.5% FBS and were treated with each purified compound at indicated doses for 8 hours. Total RNA was isolated, and 2 μg per sample was reverse transcribed with random primers using M-MLV (Promega) at 37° C. for 1 hour. PCR was carried out at 94° C. for 30 sec, 60° C. for 30 sec, and 72° C. for 30 sec with initial activation of the enzyme at 94° C. for 1 minute. Thirty cycles were performed for LDLR and GAPDH. PCR was performed using primers HLDLR-up and HLDLR-lo for LDLR and primers HGAPDH-up and HGAPDH-lo for GAPDH. The PCR products were separated on a 1% agarose gel and the band intensity was quantitated. LDLR mRNA levels were corrected by measuring GAPDH mRNA levels.

The test system is the same in series [6]. Nature of the series: LDLR mRNA expression in HepG2 cells, simvastatin versus compound 91 (Example 10). The conditions noted are these: 24 hours, FIG. 4A. It counts as cell-based, human. As for the experimental part:
(§1) In yet another experiment, HepG2 cells were treated with various compounds for 24 hours at the indicated doses. Total RNA was isolated and 2 μg was used to generate cDNA in a reaction containing random primers and M-MLV at 37° C. for 1 hour in a volume of 25 μL. Real-time PCR was performed on the cDNA using MCEP REALPLEX 2 SYSTEM (Eppendorf) and Universal MasterMix (Applied Biosystems). Human LDLR and GAPDH Pre-Developed TaqMan Assay Reagents (Applied Biosystems) were used to assess the levels of mRNA expressions in HepG2. The levels of LDLR mRNA were normalized to that of GAPDH. Each RNA samples was assayed in triplicate. The abundance of LDLR mRNA in untreated cells was defined as 1, and the amounts of LDLR mRNA from compound-treated cells were plotted relative to that value in FIG. 2B. The data shown are mean±s.d.
(§2) Total RNA was harvested for quantitative real-time RT-PCR analysis using method described in Examples 5B. The fold activity was derived by dividing the amount of normalized LDLR or PCSK9 mRNA in compound-treated cells over the amount of LDLR or PCSK9 mRNA in untreated control cells.

The subject of series [7] is PCSK9 mRNA expression in HepG2 cells. As to the kind of experiment: PCSK9 mRNA expression in HepG2 cells, simvastatin versus compound 91 (Example 10). It counts as cell-based, human. The conditions noted are these: 24 hours, FIG. 4B. As for the experimental part: as §1, §2
The test system of series [8] is LDLR mRNA expression in HepG2 cells. Nature of the series: LDLR mRNA expression in HepG2 cells, Compounds 162 and 163, real-time RT-PCR (Example 13). In kind it is cell-based, human. The conditions noted are these: FIGS. 6A and 6B. As for the experimental part: In FIG. 6A HepG2 cells were exposed to Compounds 162 and 163 at the indicated concentrations (x-axis) for 24 h and plotted against normalized LDLR mRNA levels (fold of control in absence of compound). In FIG. 6B, HepG2 cells were treated with 20 μM of each compound for the indicted times (x-axis) and plotted against normalized LDLR mRNA levels (fold of control at 24 h).
The time- and dose-dependent effects of the enantiomers of Compound 127 (Compounds 162 and 163) on LDLR mRNA expression were examined using quantitative real-time RT-PCR assays (FIGS. 6A and 6B). HepG2 cells were treated with Compound 162 and Compound 163 at indicated concentrations for various times. Total RNA was isolated and […] was used to generate cDNA in a reaction containing random primers and M-MLV at 37° C. for 1 h in a volume of 25 μL. Real-time PCR was performed on the cDNA using MCEP REALPLEX 2 SYSTEM (Eppendorf) and Universal MasterMix (Applied Biosystems). Human LDLR and GAPDH Pre-Developed TaqMan Assay Reagents (Applied Biosystems) were used to assess the levels of mRNA expressions in HepG2. The levels of LDLR mRNA were normalized to that of GAPDH. Each RNA samples was assayed in triplicate. The fold activity was calculated by dividing mRNA abundance in compound treated cells with that of control.
In general terms: Real-time PCR tracks product formation cycle by cycle.

In series [9] the test system is LDLR protein expression in HepG2 cells. Nature of the series: Western blot of LDLR protein in HepG2 cells, Compounds 162 and 163. In kind it is cell-based, human. The settings on record: 20 μM, 16 or 24 hours, FIG. 7. As for the experimental part:
(§3) FIG. 7 is a Western blot analysis of LDLR and PCSK9 expression in HepG2 cells. HepG2 cells seeded in 12-well culture plates were cultured in 0.5% FBS MEM overnight. Compounds 162 and 163 at 20 μM were added to cells for the indicated times. Untreated and treated cells were harvested at the same indicated time points. Total cell lysates were isolated and 50 μg per sample was analyzed for LDLR and PCSK9 protein abundance by western blotting. The membrane was reprobed with anti-actin antibody to examine the equal loading of cell lysates.
Chicken anti-LDLR was purchased from Abcam. HepG2 cells cultured in 60-mm dishes were incubated overnight in medium containing 0.5% fetal bovine serum prior to the addition of compounds at 20 μM concentration. After 16 or 24 hours of treatment, total cell lysate was isolated and 50 μg of protein was separated on SDS-PAGE and transferred to nitrocellulose membrane for immunoblotting with anti-LDLR.

Series [10] relates to PCSK9 protein expression in HepG2 cells. As to the kind of experiment: Western blot of PCSK9 protein in HepG2 cells, Compounds 162 and 163. It counts as cell-based, human. The settings on record: 20 μM, time-dependent, FIG. 7. As for the experimental part: as §3
Recent studies have identified the liver secreted serine protease PCSK9 (proprotein convertase subtilisin type 9) as a natural inhibitor of LDLR protein expression that degrades hepatic LDLR protein, thus increasing circulating LDL-C levels.
Background: Immunoblotting shows a protein as a band on a membrane.

The nature of the next series: in vivo. Also on record: species or system Golden Syrian hamsters. The conditions noted are these: hamster, po. As for the experimental part:
For testing the efficacy of Compound 141 (phosphate salt of Compound 127) or its enantiomers (Compound 162/Compound 163) the following suspension formulation procedure was developed to make 100 ml of Compound 141 in suspension at 10 mg/ml concentration in 0.1 M tartaric buffer pH. 3 containing 0.5% hydroxypropylcellulose H-type (HPC-H):
Step 1: 1.50 g L-(+)-tartaric acid was dissolved in 100 mL water to prepare a tartaric acid solution. The solution was adjusted to pH 3 with 1.2 mL 5N NaOH solution to provide the tartaric acid buffer (100 mM). Step 2: 0.5 g HPC-H powder was added to 10 mL tartaric acid buffer (100 mM) at 50° C. The slurry was stirred for 30 minutes, and then diluted with 90 mL tartaric acid buffer (100 mM) at room temperature to provide 0.5% HPC-H. Agitation was continued until all particles were dissolved and the solution was completely free of gels. Step 3: 1.20 g Compound 141 (or Compound 162 or Compound 163) and 1.20 g mannitol were mixed and ground through a 120 mesh sieve, then the mixture was ground slightly again. The mixture was dispersed in 100 mL 0.5% HPC-H-L-(+)-Tartaric acid buffer (pH=3), then stirred until the drug dispersed evenly. The final pH was 2.6. All the above procedures were completed at room temperature (˜25° C.). The final concentration of Compound 141 was 10 mg/ml after correction of the salt weight.
The pharmacokinetic profile and bioavailability of Compound 141 (phosphate salt of Compound 127) in male Wistar rats following single intravenous (iv) and oral administration (p.o.) were measured according to the procedures of Example 4 and are summarized in Table 11. The pharmacokinetic profile of Compound 162 in male Golden Syrian masters following oral administration (pox) is summarized in Table 12.

Counter-ions that a name gives are not always drawn.

Here are results for five compounds from patent US20110009628A1, “Compounds and Compositions for Modulating Lipid Levels and Methods of Preparing Same” (priority 2009, published 2011).

`COc1ccc2c(c1OS(=O)(=O)c1ccccc1)CN1CCc3cc4c(cc3C1C2)OCO4` (centres unmarked) [Compound 69, 9-benzenesulfonyloxy-10-methoxy-5,8,13,13a-tetrahydro-6H-[1,3]dioxolo[4,5-g]isoquino[3,2-a]isoquinoline]: the “Activity on DiI-LDL uptake” value in series [1] (A, compound dose ≦10 μM) was “+++”. In addition, the “Activity on LDLR mRNA expression (Fold of control)” value in series [2] was 2.21 ± 0.09 Fold of control. Also, in series [3] (A, compound dose ≦10 μM), the “Activity on reduction of cellular TG accumulation (% of control)” value is 60.4 ± 7.34 % of control. Besides, the “Peak Area m/z 466.1” value in series [4] (0 (control) hours) amounted to 2.38e8; in series [4] (4 h), 9.67e7; in [4] (8 h), 9.22e7; in [4] (24 h), 7.03e7. Moreover, in series [4] (HepG2 culture medium, up to 24 hours), the “stability under cell culture conditions” value was “fairly stable under cell culture conditions”.

For `COc1cc2c(cc1OC)[C@H]1Cc3ccc(OC)c(OC)c3CN1CC2` [14R-(+)-THP, 14R-tetrahydropalmatine, reference compound], the “effects on LDLR mRNA expression” value in series [5] is “potent and dose-dependent effects”. The “Activity on DiI-LDL uptake” value in series [1] (B, compound dose ≦40 μM) was “++”.

As to `COc1cc2c(cc1OC)C1Cc3ccc(OC)c(OS(=O)(=O)c4ccccc4)c3CN1CC2` (centres unmarked) [Compound 91, 2,3,10-trimethoxy-5,6,7,8,13,13a-hexahydroisoquinolino[2,1-b]isoquinolin-9-yl benzenesulfonate], in series [2], the “Activity on LDLR mRNA expression (Fold of control)” value is reported as 3.77 ± 0.20 Fold of control. The “Activity on reduction of cellular TG accumulation (% of control)” value in [3] (B, compound dose ≦40 μM) is 71.17 ± 2.23 % of control. Also, the “LDLR mRNA expression” value in series [6] is recorded as “dose-dependently increases”. Further, the “PCSK9 mRNA expression” value in [7] is on record as “inhibits”.

For the compound `COc1cc2c(cc1OC)C1Cc3ccc(OC)c(OS(=O)(=O)c4cccc(F)c4)c3CN1CC2` (single isomer, unassigned) [Compound 163, 2,3,10-Trimethoxy-5,6,7,8,13,13a-hexahydroisoquinolin[2,1-b]isoquinolin-9-yl 3-fluorobenzenesulfonate phosphate Salt (Enantiomer having negative optical rotation)], the “LDLR mRNA expression” value in series [8] is recorded as “upregulate LDLR mRNA expression”. Moreover, the “LDLR mRNA and protein expression” value in series [9] was “significantly enhance”. For the same compound, in series [10], the PCSK9 cellular levels entry is recorded as “greatly decreased”. The “pharmacokinetic properties and bioavailability, in words” value in “in vivo” was “excellent pharmacokinetic properties and good bioavailability”.

On to `COc1cc2c(cc1OC)[C@H]1[C@@H](C)c3ccc(OC)c(OC)c3CN1CC2` [14R,13S-(+)-CRDL], for which the “effects on LDLR mRNA expression” value in series [5] was “potent and dose-dependent effects”. Also, the “Activity on DiI-LDL uptake” value in series [1] (B, compound dose ≦40 μM) is on record as “++”.
